Measured values published in ChEMBL document CHEMBL1157539, “Thousands of chemical starting points for antimalarial lead identification” (Nature, 2010).

test system: Plasmodium falciparum; test: GSK_TCMDC: Inhibition of Plasmodium falciparum 3D7 in whole erythrocytes, using parasite LDH activity as an index of growth.; format: functional, organism-based; details: not given

Row | SMILES | XC50 [nM]
1 | O=C(NCCCCN1CCCC2c3ccc(O)cc3CCC21)c1ccc(-c2ccccc2)cc1 (stereo unspecified) | 945

same assay, conditions: Plasmodium falciparum, 3D7

Row | SMILES | XC50 [nM]
2 | CCCCCCCCCc1c(C)[nH]c2ccccc2c1=O | 163
3 | Cc1cc(=NN=Cc2ccccc2F)c2cc(F)ccc2[nH]1 | 299
4 | COc1ccc(Nc2ncc3c(-c4cccc(NC(=O)Cc5ccc(F)cc5)c4)c[nH]c3n2)cc1OC | 594
5 | O=C1C(c2ccccc2)=C(Nc2cccc(OC(F)(F)C(F)F)c2)c2ccccc21 | 180
6 | COc1cc(-c2nc(-c3ccncc3)c(-c3ccc4c(c3)CCC4=NO)[nH]2)ccc1OCCN1CCCCC1 | 789
7 | CC1(C)NC(N)=NC(=N)N1OCCSc1ccccc1 | 3.2
8 | CN1CCN(C(C(=O)NCc2cc(Cl)cc(Cl)c2)c2ccc(Nc3cccc(C(F)(F)F)c3)cc2)CC1 (stereo unspecified) | 1120
9 | CC(C)C[C@H](Nc1ccc(C#N)c2ccccc12)C(=O)NC(C)(C)C12CC3CC(CC(C3)C1)C2 | 916
10 | CC=CCON1C(=N)NC(=N)NC1(C)C | 27.9
11 | COc1ccc(NC(=O)[C@H](CC(C)C)Nc2ccnc(NCCc3ccc(F)cc3)n2)cc1 | 1600
12 | O=C(Nc1ccc(Cl)cc1)c1cc(Cl)ccc1NC(=O)C1CCc2ccccc2O1 (stereo unspecified) | 1790
13 | Clc1ncnc2ncn(Cc3cccc(Br)c3)c12 | 1060
14 | O=C(NCCCCN1CCC(c2ccc3c(c2OCCO)CCCC3)CC1)c1sc(-c2ccc(C(F)(F)F)cc2)nc1CO | 1050
15 | c1ccc(CNc2nc(NCCc3c[nH]cn3)nc(N3CCCC4CCCCC43)n2)cc1 (stereo unspecified) | 834
16 | Cc1cc(C)c(C)c(OCCCON2C(=N)N=C(N)NC2(C)C)c1C | 3.2
17 | COc1ccc(CCN(C)CCCCNC(=O)c2ccc(NC(=O)c3ccc(Cl)cc3)cc2)c(OC)c1 | 921
18 | CN1CCCC(CN2CCN(Cc3ccc(-c4ccc(-c5nc6cc(F)ccc6[nH]5)s4)cc3)CC2)C1 (stereo unspecified) | 127
19 | O=C(O)c1ccc(OCOCOc2ccc(C(=O)O)c(O)c2)cc1O | 190
20 | Cc1sc(N2CCCCC2)nc1C(=O)Nc1ccc(F)cc1C(F)(F)F | 1150
21 | CCCN(CCC)C(=O)c1cc(C(=O)N[C@@H](Cc2ccccc2)[C@H](O)CNC(C)(C)c2cccc(C(F)(F)F)c2)cc(N2CCCCS2(=O)=O)c1 | 36.2
22 | OCC1CCN(Cc2ccc(-c3cccc(-c4nc5cc(F)ccc5[nH]4)c3)cc2)CC1 | 910
23 | N#Cc1cccc(NC(=O)Nc2cccc(-c3ccc(-c4nc5cc(C(F)(F)F)ccc5[nH]4)cc3)c2)c1 | 247
24 | O=C(CCC1CCCCC1)NCCNc1cccc2ccccc12 | 831
25 | CCCCNCc1ccc(-c2nc(CN(CCCn3ccnc3)C(=O)C3COc4ccccc4O3)cs2)cc1 (stereo unspecified) | 892
26 | COc1cc(CNC[C@@H](O)[C@H](Cc2ccccc2)NC(=O)c2cc(C3CCCC3)cc(N3CCCS3(=O)=O)c2)cc(OC)c1 | 1240

Row | SMILES | XC50 [nM]
27 | CC[C@H](C)CNC(=O)c1ccnc(-c2ccc(CN3CCC(N4CCCC4)CC3)cc2)c1 | 891
28 | CC[C@@]1(O)C(=O)OCc2c1cc1n(c2=O)Cc2c-1nc1cc3c(cc1c2CN1CCOCC1)OCO3 | 965
29 | CC(=O)Nc1ccc(CN2CCC(N(C)c3cc(NC(=O)c4cccs4)ccn3)CC2)cc1 | 892
30 | Cn1nccc1C(=O)NCCNCc1cccc(-c2cccc(-c3nc4cc(C(F)(F)F)ccc4[nH]3)c2)c1 | 172
31 | COC(=O)c1cc(C(O)CNC(C)CCCc2ccccc2)ccc1O (stereo unspecified) | 742
32 | Cc1ccc(-n2c(Sc3ncnc4sccc34)nnc2N2CCCC2)cc1 | 263
33 | Oc1ccc2[nH]cc(C3=CCN(Cc4ccccc4)CC3)c2c1 | 983
34 | Oc1cc2c(cc1CN1CCN(Cc3ccccc3F)CC1)CCC2 | 761
35 | O=C(c1cccc(-c2noc(C(F)(F)F)n2)c1)N1CCN(C(=O)c2ccc3cc[nH]c3c2)CC1 | 107
36 | O=C(CN1CCN(C(=O)c2ccco2)CC1)Nc1ccccc1Br | 558
37 | Clc1ccc(-c2cnc3ccc(NCc4ccncc4)nn23)cc1 | 891
38 | N=C1SC(=Cc2cn[nH]c2-c2ccc(F)cc2)C(=O)N1c1nccs1 | 225
39 | OC(CN(Cc1ccccc1)Cc1ccccc1)Cn1c2ccc(Cl)cc2c2cc(Cl)ccc21 (stereo unspecified) | 995
40 | Cc1cc(N[C@@H](CC(C)C)C(=O)NCc2cccs2)nc(NCCc2ccccc2)n1 | 1190
41 | CC1(C)N=C(N)N=C(N)N1c1cccc(I)c1 | 126
42 | Nc1nccc(-c2ccc3c(/C=C/c4ccccc4)cnc(N)c3c2)n1 | 621
43 | O=C(NCCCCN1CCC(c2ccc(OC(F)(F)F)cc2)CC1)c1ccc(NC(=O)c2ccc(Cl)cc2)cc1 | 629
44 | COC(=O)c1cc(C(O)CNC(C)CCc2cccc(F)c2)ccc1O (stereo unspecified) | 1180
45 | COc1ccc2[nH]ccc(=NN=Cc3ccncc3)c2c1 | 584
46 | Cc1cc(N(C)C)nc(Nc2ccc(NC(=O)CCc3ccccc3)cc2)n1 | 850
47 | CCN(C)c1cc(C(=O)N[C@@H](Cc2ccccc2)[C@H](O)CNC(C)(C)c2cccc(OC)c2)cc(N2CCCC2=O)c1 | 73
48 | Cc1cccc(C)c1C1CCN(CCCCNC(=O)c2cc3ccccc3[nH]2)CC1 | 892
49 | CC(CN1CCN(C)CC1)C(=O)Nc1ccc(-c2cccc(-c3nc4ccccc4[nH]3)c2)cc1 (stereo unspecified) | 566
50 | CC(C)CCNC(=N)c1ccc(OCCCCCOc2ccc(C(=N)NCCC(C)C)cc2)cc1 | 534
51 | CCCCCCN1CCC(NCc2cccc([N+](=O)[O-])c2)CC1 | 668

Row | SMILES | XC50 [nM]
52 | Cc1cc(N(C)C)nc(Nc2ccc(NC(=O)c3c(F)cccc3F)cc2)n1 | 1380
53 | Oc1ccc2nc(Nc3ccccc3)nc(NCCc3ccccc3)c2c1 | 152
54 | Cc1c(CNCCN2CCCCC2)c(C(=O)O)c(C)n1Cc1ccc(Cl)cc1 | 416
55 | COc1ccc2nccc([C@@H](O)CN3CCC(NCc4ccc5c(c4)NC(=O)C(C)S5)CC3)c2c1 (stereo partly specified) | 200
56 | O=C(C=Cc1ccc(Cl)c(Cl)c1)NCCCCCN1CCCC(CCCNS(=O)(=O)c2cccc3cccnc23)C1 (stereo unspecified) | 1000
57 | O=C(O)C1Cc2c([nH]c3ccccc23)C(c2ccc(Cl)cc2Cl)N1 (stereo unspecified) | 954
58 | CCC[C@@H]([C@@H](CC1CCCCC1)C(=O)N[C@H](C(=O)Nc1nccc(N)n1)C(C)(C)C)N(O)C=O | 528
59 | NC(=O)c1cccc(Nc2nccc(Nc3ccc4[nH]c(-c5ccccc5)cc4c3)n2)c1 | 776
60 | CC1(C)N=C(N)N=C(N)N1c1ccc(Cl)cc1 | 31.1
61 | CN(c1cc(NC(=O)c2ccc(F)cc2)ccn1)C1CCN(Cc2cccc(C#N)c2)CC1 | 831
62 | CCc1ccc(-c2nc3cc(NC(=O)c4cc([N+](=O)[O-])cc([N+](=O)[O-])c4)ccc3o2)cc1 | 932
63 | CCNc1cc(C)nc(Nc2ccc(NS(=O)(=O)c3ccccc3)cc2)n1 | 791
64 | CCCCCCCCCC(=O)NCC1CC(Br)=NO1 (stereo unspecified) | 1050
65 | Cc1n[nH]c2cc(Nc3ccnc(Nc4cccc(CN5CCOCC5)c4)n3)ccc12 | 1580
66 | N=C(NCCCCC1CCCCC1)c1cccc(C(=N)NCCCCC2CCCCC2)n1 | 395
67 | CCc1ccc(NC(=O)N(CCCN2CCN(C)CC2)Cc2csc(-c3ccc(CNCc4ccccc4)cc3)n2)cc1 | 1010
68 | COc1ccc2nccc([C@@H](O)CN3CCC(NC(=O)C(c4cc5ccccc5o4)N4CCC(Cc5ccccc5)CC4)CC3)c2c1 (stereo partly specified) | 247
69 | CCCCCN(C(=O)Nc1cc(C(F)(F)F)cc(C(F)(F)F)c1)C(C)c1nc2ccccc2c(=O)n1CC (stereo unspecified) | 787
70 | CCCCCN1CCC(NS(=O)(=O)c2cccc(C(=O)Nc3ccc(Cl)cc3)c2)CC1 | 918
71 | N=c1n(CCN2CCCCC2)c2ccccc2n1CC(=O)c1cccc([N+](=O)[O-])c1 | 879
72 | COc1ccc(-n2cc(C(=O)c3cc(Br)ccc3O)cc(C#N)c2=O)cc1Cl | 791
73 | Cc1cccc2nc(-c3ccc(-c4ccc(CN5CCN(c6cnccn6)CC5)cc4)s3)[nH]c12 | 750
74 | Oc1ccc2nc(NCCCc3ccccc3)nc(NCCc3ccccc3)c2c1 | 289
75 | O=[N+]([O-])c1cccc(CNC2CCN(Cc3ccc(Cl)c(Cl)c3)CC2)c1 | 456
76 | c1ccc(CNc2nc(NCCN3CCCCC3)nc3ccccc23)cc1 | 1020

Row | SMILES | XC50 [nM]
77 | COc1ccc(C2CC(c3ccccc3O)=NN2C(=O)c2ccco2)cc1OC (stereo unspecified) | 947
78 | CC1(C)CN(CCC2CCC(NC(=O)/C=C/c3ccccc3F)CC2)Cc2ccc(C#N)cc21 (stereo unspecified) | 1110
79 | Cc1c(-c2ccccc2)ccc2[nH]cc(CC#N)c12 | 703
80 | N#Cc1cccc(CN2CCCN(c3ccc(NC(=O)c4cccs4)cc3)CC2)c1 | 809
81 | CC1(C)N=C(N)N=C(N)N1CCc1ccccc1 | 47.4
82 | FC(F)(F)c1ccc2[nH]c(-c3ccc(-c4cccc(CN5CCCCC5)c4)cc3)nc2c1 | 144
83 | CO/C(=C\C=C\c1cc2cc(Cl)c(Cl)cc2[nH]1)C(=O)NC1CCN(CCNc2ccccc2)CC1 | 258
84 | COc1ccccc1N1CCN(Cc2c(NC(C)=O)sc(C)c2C)CC1 | 425
85 | Cc1cccc2nc(-c3cccc(-c4cccc(CNCc5ccccc5)c4)c3)[nH]c12 | 393
86 | O=C(Nc1cccc(-c2ccc(-c3nc4ccccc4[nH]3)cc2)c1)c1ccncc1 | 529
87 | CCn1cc(-c2nc(-c3cc(OC)cc(OC)c3)no2)c(=O)c2ccccc21 | 338
88 | Fc1ccc2[nH]c(-c3ccc(-c4cccc(CN5CCN(CCN6CCOCC6)CC5)c4)cc3)nc2c1 | 145
89 | Cc1ccc(S(=O)(=O)n2nccc2-c2c(-c3ccc(Cl)cc3)noc2C)cc1 | 809
90 | COc1c(C2CCN(CCCCNC(=O)c3ccc(-c4ccc(Cl)cc4)c(OCCN(C)C)c3)CC2)ccc2c1CCCC2 | 190
91 | CC(=O)N1CCC(C(=O)Nc2ccc(-c3cccc(-c4nc5cc(C(F)(F)F)ccc5[nH]4)c3)cc2)CC1 | 239
92 | CC(=O)N1N=C(c2[nH]c3ccc(Br)cc3c2C)OC1c1ccccc1 (stereo unspecified) | 777
93 | S=c1nc(-c2ccccc2)n2ccsc2n1 | 176
94 | CCCOc1ccc(OCCCON2C(=N)N=C(N)NC2(C)C)cc1 | 3.2
95 | Cc1ccccc1N1CCN(c2ncc(C(=O)NC3CC3)cc2Cl)CC1 | 628
96 | O=C(NCCCCN1CCCC2c3ccc(O)cc3CCC21)c1ccc(-c2ccccc2)cc1 (stereo unspecified) | 732
97 | Cc1nc(Nc2cc(Cl)ccc2O)nc(Nc2cc(Cl)ccc2O)c1[N+](=O)[O-] | 29.4
98 | Cc1nc2nc(N)nc(N)c2c(C)c1Cc1ccc(C(N)=O)cc1 | 530
99 | COc1cc2nc(NCc3nc4ccccc4[nH]3)nc(N)c2cc1OC | 885
100 | CN(c1cc(NC(=O)c2cccs2)ccn1)C1CCN(Cc2ccccc2)CC1 | 1020
101 | O=C(Cn1c(CCc2cccc(F)c2F)cc(=O)c2ccccc21)N(CCN1CCCC1)Cc1ccc(-c2ccc(C(F)(F)F)cc2)cc1 | 859
